# Patent US12661335B2, “Halogenated xanthene-containing topical anti-gram-positive bacterial ophthalmic composition and method” (Provectus Pharmatech, Inc., priority 2021, dated 2026)
# Read-outs that look alike come from different tables or passages of the source.
# Columns and labels:
# [1] = concentrations below 2.0%; cited from earlier work
# [2] = tested on: Enterococcus faecium BAA-2320; assay: MIC, broth dilution method, dark condition; type: cell-based; settings: BAA2320, Table 1 entry 19, 24 h
# [3] = tested on: Staphylococcus aureus AIS2006032 (a vancomycin-resistant strain); assay: MIC, broth dilution method, dark condition; type: cell-based; settings: Table 1 entry 12, 24 h
# [4] = tested on: Enterococcus faecalis 19433 ™; assay: MIC, broth dilution method, dark condition; type: cell-based; settings: Table 1 entry 17, 24 h
# [5] = tested on: Staphylococcus aureus USA100 strains 71080 (VRS8, a vancomycin-resistant strain); assay: MIC, broth dilution method, dark condition; type: cell-based; settings: Table 1 entry 15, 24 h
# [6] = tested on: Saccharomyces cerevisiae BY4743; assay: MIC, broth dilution method, dark condition; type: cell-based; settings: Table 1 entry 30, 24 h
# [7] = tested on: Staphylococcus aureus subsp. Aureus BAA-44 ™ (a MRSA strain); assay: MIC, broth dilution method, dark condition; type: cell-based; settings: Table 1 entry 8, 24 h
# [8] = tested on: Staphylococcus aureus subsp. Aureus 33592 ™ (a methicillin and gentamicin resistant strain); assay: MIC, broth dilution method, dark condition; type: cell-based; settings: Table 1 entry 11, 24 h
# [9] = tested on: Staphylococcus aureus subsp. Aureus BAA-41 ™ (a MRSA strain); assay: MIC, broth dilution method, dark condition; type: cell-based; settings: Table 1 entry 6, 24 h
# [10] = tested on: Staphylococcus aureus subsp. Aureus BAA-1683 (a MRSA strain); assay: MIC, broth dilution method, dark condition; type: cell-based; settings: Table 1 entry 5, 24 h
# [11] = tested on: multidrug-resistant Fusarium keratoplasticum; settings: RB about 0.1%, photoactivated by 15 minutes irradiation at 375 nm or 518 nm; cited from earlier work
# [12] = tested on: Bacillus cereus 13061 ™; assay: MIC, broth dilution method, dark condition; type: cell-based; settings: Table 1 entry 3, 24 h
# [13] = tested on: Enterococcus faecium NR-32065 (a vancomycin- resistant strain); assay: MIC, broth dilution method, dark condition; type: cell-based; settings: Table 1 entry 20, 24 h
# [14] = tested on: Gram-negative bacteria; assay: Susceptibility of Gram-negative bacteria, dark condition; type: cell-based
# Text: Under the dark condition RB is known to display antibacterial activity at high concentrations.
# [15] = tested on: Fusarium keratoplasticum-infected cornea; settings: one patient, cited from earlier work
# [16] = tested on: biofilms of S. aureus 6508™; assay: Biofilm eradication assay; type: cell-based, Staphylococcus aureus; settings: for viable bacteria in biofilm: dark condition
# Protocol: 62:394-399 (2013)], and was used as a control.
# Linezolid was applied as a positive control at very high concentration of 600 μg/mL (>100×MIC for the planktonic cells) in biofilm assays reported by Kurosu et al., Molecules 27:322 (2022).
# [17] = tested on: Bacillus cereus NRRL B-569; assay: MIC, broth dilution method, dark condition; type: cell-based; settings: NRRLB569, Table 1 entry 2, 24 h
# [18] = tested on: Staphylococcus aureus BAA-2313 ™ (a MRSA strain); assay: MIC, broth dilution method, dark condition; type: cell-based; settings: Table 1 entry 10, 24 h
# [19] = tested on: C. albicans; settings: three days of incubation, cited from earlier work
# [20] = tested on: progressive infectious keratitis; settings: cited from earlier work
# [21] = tested on: A. fumigattus; settings: three days of incubation, cited from earlier work
# [22] = tested on: patient-isolated methicillin-resistant Staphylococcus aureus (MRSA); settings: cited from earlier work
# [23] = tested on: Mycobacterial spp.; assay: Killing concentrations for five Mycobacterial spp.; type: cell-based, Mycobacterium spp.
# Protocol: Antibacterial activity of RB against 5 Mycobacterium spp. Was examined (entries 25-29). […] RB inhibited growth of Saccharomyces cerevisiae at higher concentrations than the bacteria under the dark condition (entry 30).
# RB kills Mycobacterial spp. At 12.5-25.0 mg/mL in illumination conditions, and at 25.0-50.0 mg/mL in dark conditions (Table 1). In both conditions, RB kills five Mycobacterial spp. At a slower rate than that of Gram-positive bacteria. RB seems to have low-permeability of mycobacterial cell walls. Due to rapid bactericidal effect of RB against Gram-positive bacteria even in the dark condition, generation of RB-resistant mutants of Gram-positive bacteria is an extremely difficult task.
# [24] = tested on: Mycobacterium smagmatis 607 ™; assay: MIC, broth dilution method, dark condition; type: cell-based, Mycobacterium smegmatis
# [25] = tested on: biofilms of E. faecium NR-32065; assay: Biofilm eradication assay; type: cell-based, Enterococcus faecium; settings: fluorescent and dark conditions; concentration-dependent
# Text: Linezolid is not an effective drug in eradicating biofilms of Gram-positive bacteria, but has a beneficial effect in prevention of biofilm formations [Reiter et al., J. Med. Microbiol. 62:394-399 (2013)], and was used as a control.
# We confirm that RB is an excellent agent to eradicate biofilms of Gram-positive bacteria, including drug-resistant strains. […] These studies indicate that RB has the potential antibacterial agent to kill drug-resistant bacteria in any growth phases.
# [26] = tested on: Streptococcus pneumoniae 6301 ™; assay: MIC, broth dilution method, dark condition; type: cell-based
smiles,measurement,setting,value
"O=C(O)c1c(Cl)c(Cl)c(Cl)c(Cl)c1-c1c2cc(I)c(=O)c(I)c-2oc2c(I)c(O)c(I)cc12 [RB, 4,5,6,7-tetrachloro-2′,4′,5′,7′-tetraiodofluorescein]",safety of RB under natural and artificial lights,[1],considered to be safe
same,MIC,[2],25 µg/mL
same,MIC,[3],50 µg/mL
same,MIC,[4],25 µg/mL
same,MIC,[5],25 µg/mL
same,MIC,[6],125 µg/mL
same,MIC,[7],50 µg/mL
same,MIC,[8],50 µg/mL
same,MIC,[9],25 µg/mL
same,MIC,[10],50 µg/mL
same,fungal growth inhibition in vitro,[11],could inhibit the fungal growth
same,MIC,[12],50 µg/mL
same,MIC,[13],50 µg/mL
same,susceptibility of Gram-negative bacteria to RB,[14],not susceptible
same,time to resolution of pain post irradiation,"[15]; RB dripped on debrided cornea 30 minutes, 518 nm light 0.9 J/cm^2",36 h
same,decrease of infiltrate size in all directions,[15]; four days after treatment,approximately 1 mm
same,viable bacteria in biofilm,[16]; RB 50.0 μg/mL (2×MIC under dark),significantly reduced the number of viable bacteria
same,viable bacteria in biofilm,"[16]; RB 1,000 μg/mL",No viable bacteria
same,"biofilm eradication, log reduction","[16]; under the fluorescent light, RB 30.0 μg/mL (38×MIC)",7 log reduction
same,MIC,[17],50 µg/mL
same,MIC,[18],25 µg/mL
same,"Day 3 Growth Inhibition Percentage, RB + 518 nm Irradiation","[19]; 518 nm, 5.4 J/cm^2",95.6 ± 3 Percentage
same,"Day 3 Growth Inhibition Percentage, RB Only","[19]; dark, no irradiation",42.2 ± 3.7 Percentage
same,"Successful RB-PDAT (avoidance of therapeutic keratoplasty), share of cases","[20]; 0.1 or 0.2% RB on de-epithelized corneas 30 minutes, then 5.4 J/cm^2 green LED light 15 minutes, 18 patients unresponsive to standard therapy",72%
same,average time to clinical resolution after RB-PDAT,"[20]; 0.1 or 0.2% RB, 5.4 J/cm^2 green LED light",46.9 ± 26.4 days
same,"Day 3 Growth Inhibition Percentage, RB + 518 nm Irradiation","[21]; 518 nm, 5.4 J/cm^2",79.8 ± 9 Percentage
same,"Day 3 Growth Inhibition Percentage, RB Only","[21]; dark, no irradiation",6.6 ± 0. Percentage
same,growth inhibition of MRSA strain 1,[22]; RB 0.03% in dark conditions,incomplete inhibition
same,growth inhibition of MRSA strain 2,[22]; RB 0.03% in dark conditions,complete inhibition
same,growth inhibition of both MRSA strains,[22]; RB 0.1% in the dark,Complete growth inhibition
same,growth inhibition of both MRSA strains,"[22]; RB 0.1 and 0.03%, ambient room light or green LED irradiation (5.4 J/cm^2)",Complete growth inhibition
same,concentration at which RB kills Mycobacterial spp.,[23]; dark conditions,25.0 to 50.0 mg/mL
same,concentration at which RB kills Mycobacterial spp.,[23]; illumination conditions,12.5 to 25.0 mg/mL
same,MIC,"[24]; Mycobacterium, Table 1 entry 25, broth dilution, dark, 24 h, read-out: MIC",25 µg/mL
same,MIC,"[24]; dark condition, triplicated, read-out: MIC (μg/mL) against M. smegmatis 607 ™ (wild-type)",12.5 µg/mL
same,viable cells in biofilm,[25],significantly reduced
same,MIC,"[26]; Streptococcus pneumoniae, Table 1 entry 24, broth dilution, dark, 24 h",> 100 µg/mL
same,susceptibility to RB,[26]; entry 24,showed resistance
